Assay [1] relates to HbS erythrocytes. Briefly: Inhibition of sickling of intact erythrocytes at low oxygen tension. The assay is classed as cell-based, human. The conditions noted are these: for sickling of deoxygenated erythrocytes: microscope, formalin-fixed. On the procedure:
The procedure used was essentially that of Cerami and Manning (15). The source of the red cells was human blood in which HbS represented essentially 100% of the total hemoglobin as determined by electrophoresis on a cellulose acetate membrane in a Supre-Heme® Tris-EDTA-boric acid buffer (Helena Laboratories, Beaumont, Tex.).
Ten microliters of blood was diluted to 5 ml with PBS and 1 ml aliquots were distributed into the same type of cuvettes used to study hemoglobin S aggregation (see above). Two #25 hypodermic needles were inserted into each plastic diaphragm and nitrogen was passed over the surface of the erythrocyte suspension for 15 minutes with periodic gentle shaking. The hypodermic needles were removed and the sealed cuvettes were left for 2 hours at room temperature. The control cuvette was treated identically except that the cap was loosened for the 2 hour period.
Then 250 μl of 10% buffered formalin (Metpath) was added to the cell suspensions, which were allowed to stand at room temperature for 15 minutes. The cell suspensions were then sedimented by centrifugation, suspended in 100 μl of PBS and examined under the microscope.

The target in a further assay is human hemoglobin (Homo sapiens, UniProt P68871+P69905). The settings on record: personal communication; cited from earlier work.
The next assay deals with T1, hemoglobin S (Homo sapiens, UniProt P68871+P69905, E7V).
T1 construct: from tissue; host or cells: blood / erythrocytes of a subject with sickle cell disease (inferred from the general method)
Briefly: Inhibition of aggregation of deoxygenated hemoglobin S (turbidity at 700 nm). The assay is classed as biochemical. The settings on record: low oxygen tension, 1.8M phosphate buffer, 30° C. On the procedure: Inhibition of Aggregation of Hemoglobin S
To a 10 mm cuvette (Type 9GL14S, Septum seal, Uvonic Instruments, Plainview, N.Y. 11803) containing 0.9 ml of 1.8M phosphate buffer, pH 9.4, was added 5 mg of Na2S203. The cuvette was capped and two #25 hypodermic needles were inserted through the soft plastic seals. Nitrogen was passed over the surface of the solution for 15 minutes to drive off oxygen; the cuvette was then gently shaken to dissolve the Na2S203. The cuvette was then placed in an ice bath to bring the solution to 4° C. and 0.1 ml of a 2 g/dl HbS solution (13, 14) was added through the plastic diaphragm with a Hamilton air-tight syringe. The temperature of the solution in the cuvette was raised by placing it in a 30° C. bath and then into a spectrophotometer in which the increase in turbidity was measured with time at 700 nm. […] The latter was extracted with phosphate buffer from tablets of Valtrex (Glaxo Wellcome).

Assay [2] concerns HbS erythrocytes. The settings on record: literature (15, 16); cited from earlier work.

Here are results for three molecules from patent publication US6946457B2, “Methods of treating sickle cell disease” (The Trustees of Columbia University in the City of New York, priority 2001, dated 2005).

Molecules are shown by their SMILES.

As for `Nc1nc2c(ncn2COCCO)c(=O)[nH]1` [acyclovir, 2-amino-1,9-dihydro-9-[(2-hydroxyethoxy)methyl]-6H-purin-6-one], the “sickling of deoxygenated erythrocytes” value with HbS erythrocytes [1] (0.2 mg/ml) is recorded as “Minimal sickling”; in the assay with HbS erythrocytes [1] (0.3 mg/ml), “Minimal sickling”; with HbS erythrocytes [1] (0.4 mg/ml) it was “essentially no sickling”. In the assay on HbS erythrocytes [1] (lowest concentration (FIG. 2B, 0.2 mg/ml)), the “proportion of sickling cells” value is given as “below 60%”. For the same molecule, the “change in Hill coefficient” value at human hemoglobin is “no significant change”. At human hemoglobin, the “change in oxygen affinity” value is listed as “no significant change”. Besides, on hemoglobin S, the “in vitro aggregation of HbS” value is reported as “inhibiting”.

With `CC(C)[C@H](N)C(=O)OCCOCn1cnc2c(=O)[nH]c(N)nc21` [valacyclovir, L-valine, 2-[(2-amino-1,6-dihydro-6-oxo-9H-purin-9-yl)methoxy]ethyl ester], at hemoglobin S, the “in vitro aggregation of HbS” value is given as “inhibiting”.

Regarding `N#C[O-].[K+]` [KCNO], the “concentration used to inhibit sickling” value in the assay on HbS erythrocytes [2] is 2.4 mg/mL. Further, the “concentration relative to the effective concentration of acyclovir” value in the assay on HbS erythrocytes [1] (KCNO 2.4 mg/ml versus acyclovir (FIG. 2)) is recorded as “more than 10 ×”.
